Measured values taken from patent US20110059070A1, “Combination therapy for tumoral desease treatment” (Ramot At Tel Aviv University Ltd., priority 2006, published 2011).
Read-outs that look alike come from different tables or passages of the source.

Columns and labels:
[1] = tested on: K562 cells; experiment: Complement-mediated lysis of K562 cells (Trypan blue inclusion); assay type: cell-based, human; conditions: for effect on complement-mediated lysis (percent cell lysis): K562 cells pretreated 60 minutes at 37° C. at different concentrations, then anti-K562 antibodies and NHS, Trypan Blue
Method: FIG. 1 is a histogram depicting the sensitization of cells to complement mediated lysis by MKT-077. K562 cells were pretreated for 1 hour at 37° C. with increasing concentrations of MKT-077 [or double distilled water (DDW); NT] and then treated with a sublytic dose of anti-K562 antibody (1:14) and complement [Normal human serum (NHS)] or heat-inactivated NHS (HI-NHS). After incubation for 1 hour at 37° C., percent cell lysis was measured with 0.2% Trypan Blue. Results present the percentage of cell lysis and are representative of four independent experiments. P<0.01 between NT group and the other groups.
K562 cells were treated for 60 minute at 37° C. with different concentrations of MKT-077 or Rhodamine123 (Rho123), followed by treatment for another 60 minutes with anti-K562 antibodies and NHS or HI-NHS and the cell lysis was measured by Trypan blue inclusion. Results are representative of three independent experiments. *P<0.05, between cells treated with NHS and MKT-077 and cells treated with NHS without MKT-077.
(§1) Cell lysis and collection of secreted vesicles—Cytotoxicity assay was performed as described before [Reiter, Y. and Z. Fishelson, Complement membrane attack complexes induce in human leukemic cells rapid expression of large proteins (L-CIP). Mol Immunol, 1992. 29(6): p. 771-81]. […] Cell lysis was determined by Trypan blue inclusion. Statistical significance was analyzed by using the two-sided unpaired Student's t-test. […]
MKT-077 sensitizes cells to complement-mediated lysis—Human K562 erythroleukemia cells were pretreated for 60 minutes at 37° C. with MKT-077, at different concentrations, and then the cells were treated for additional 60 minutes at 37° C. with anti-K562 antibodies for 30 minutes on ice and with complement (NHS) or heat-inactivated NHS (HI-NHS) as control. Finally, cells were washed and percent cell lysis was quantified by Trypan Blue inclusion. […]

[2] = tested on: K562 cells; experiment: Release of mortalin and C9 by vesiculation after complement attack (Western blot); assay type: cell-based, human; conditions: K562 cells pretreated 1 hour with 200 μM or 50 μM, sublytic anti-K562 antibodies and NHS
Method: K562 cells pretreated with 50 μM MKT-077 (or with double distilled water) were treated for 10 minutes at 37° C. with a sublytic dose of anti-K562 antibody and NHS or HI-NHS. Then, the cells were washed 4 times with Hank's Balanced Salt Solution (HBSS; Sigma, Rehovot, Israel), incubated for 10 minutes at 37° C. and supernatant were collected. Released proteins were first sedimented at 5,000 g for 15 minutes and then centrifuged at 100,000 g for 30 minutes for vesicles isolation. High-speed supernatant and pellets were analyzed by SDS-PAGE and Western Blotting with anti-mortalin (FIG. 2a) or anti-C9 (FIG. 2b) antibodies. Results are representative of three independent experiments.
as §1
Protein analysis—Protein concentration was analyzed with the BCA Protein Assay Kit (Pierce, Rockford, Ill., USA). […]

[3] = tested on: HCT116 colon carcinoma cell line (HCT) p53 +/+ and HCT p53 −/− cells; experiment: Complement-mediated lysis of HCT p53 +/+ and HCT p53 −/− cells; assay type: cell-based; conditions: HCT p53 +/+ versus HCT p53 −/− cells
Method: FIG. 3 is a histogram depicting that the effect of MKT-077 on complement-mediated lysis is p53-independent. HCT116 colon carcinoma cell line (HCT) p53 +/+ and HCT p53 −/− cells were pretreated for 1 hour at 37° C. with 50 μM MKT-077 and then treated with a lytic dose of anti-K562 antibody (1:9) and NHS or HI-NHS. After incubation for 1 hour at 37° C., percent cell lysis was measured by Trypan blue inclusion. Results present the percentage of cell lysis and are representative of three independent experiments.
Cell lysis and collection of secreted vesicles—Cytotoxicity assay was performed as described before [Reiter, Y. and Z. Fishelson, Complement membrane attack complexes induce in human leukemic cells rapid expression of large proteins (L-CIP). Mol Immunol, 1992. 29(6): p. 771-81]. Briefly, for a cell lysis assay, cells were incubated with diluted anti-K562 antiserum for 30 minutes at 4° C. and then with complement [NHS or heat-inactivated normal human serum (HI-NHS), 50%] for 60 minutes at 37° C. Cell lysis was determined by Trypan blue inclusion. Statistical significance was analyzed by using the two-sided unpaired Student's t-test. […]
The effect of MKT-077 on complement-mediated lysis is p53-independent—MKT-077 is known to prevent the binding of mortalin to p53 (Wadhwa et al. Cancer Res. 15: 6818-6821, 2000). […] After 60 minutes at 37° C., percent lysis was measured.

[4] = tested on: K562 cells; experiment: SLO-mediated lysis of K562 cells; assay type: cell-based, human; conditions: K562 pretreated 1 hour with 50 μM, then 900 and 1200 units ml^−1 SLO, 15 minutes at 37° C.
Method: (§2) FIG. 4a—K562 cells were pretreated for 1 hour at 37° C. with 50 μM MKT-077 and then treated with 900 and 1200 units ml^−1 SLO or with DTT as control. After 15 minutes at 37° C., cell lysis was measured by Trypan blue inclusion. Results are representative of three independent experiments. FIG. 4b—K562 cells were treated for 1 hour at 37° C. with increased concentrations of A23187 and with 50 μM MKT-077. Cell lysis was then measured by Trypan blue inclusion. Results present the percentage of cell lysis and are representative of three independent experiments.
(§3) MKT-077 has no effect on SLO-mediated lysis and A23187-mediated lysis—The present inventors have further addressed the question of specificity of the effect of MKT-077 on cell death. The effect of MKT-077 on cell death induced by Streptolysin O (SLO), another cytolytic pore-forming protein, was examined. Cells were pretreated with MKT-077 and then treated with several doses of SLO or with dithiothreitol (DTT) as control. Lysis was measured after 15 minutes incubation at 37° C. Results presented in FIG. 4a show no effect of MKT-077 on SLO-mediated lysis. The present inventors have further examined the effect of MKT-077 on cell death induced by the Ca^+2 ionophore A23187. […] Next, the cells were washed and percent cell death was measured.

[5] = tested on: K562 cells; experiment: A23187-mediated lysis of K562 cells; assay type: cell-based, human; conditions: K562 treated 1 hour at 37° C. with increased concentrations of A23187 and 50 μM MKT-077
Method: as §2, §3

[6] = biological target: T1, mortalin binding to C9 (Homo sapiens, UniProt P38646); experiment: Binding of mortalin to complement C9 (ELISA); conditions: K562 cell lysate with or without 50 μM MKT-077 on C9-coated wells; P<0.005
T1 construct: incubated with K562 lysates (source for mortalin), with or without MKT-077; endogenous in cells; host or cells: K562 cell lysate
Method: FIG. 5 is a histogram depicting the interference of MKT-077 with binding of mortalin to C9. Microtiter plate wells were coated overnight with C9 or BSA (0.5 μg per well) and then incubated with K562 cell lysate (40×10^6 cells ml^−1 lysis buffer) diluted 1:25 with or without 50 μM MKT-077. The wells were washed and treated with anti-mortalin antibody and peroxidase-labeled second antibody, developed with o-phenilenediamine (OPD) and analyzed in an ELISA reader. Results present the quantity of mortalin in each experimental group and are representative of three independent experiments. *,P<0.005 between groups with and without MKT-077.
Binding of mortalin to complement C9—Binding of mortalin to the complement C9 protein was examined by ELISA analysis. In brief, purified human C9 and BSA (0.5 μg per well each) were bound overnight at 4° C. to a 96-well Enzyme Immunoassay (EIA) plate (Corning, N.Y., USA). Diluted cell lysate prepared from 40×10^6 K562 cells as described above was added to each well for 60 minutes at 37° C. After washes, monoclonal mouse anti-mortalin antibody (diluted 1:500) was added for 30 minutes at 37° C. and then peroxidase-conjugated goat anti-mouse IgG was added for 30 minutes at room temperature. Next, o-phenylenediamine (Sigma) was added and the plate was examined in a Spectrafluor Plus plate reader (Tecan, Austria) at 450 nm. […]

[7] = cited from earlier work
[8] = cited from earlier work; remark: listed apart in the source
[9] = tested on: human tumor cells; conditions: human tumor cells tested; cited from earlier work
[10] = bolus dose (30 minutes i.v. infusion) 126 mg/m^2/week X 4 weeks every 6 weeks

T1 sequence (P38646 47-679): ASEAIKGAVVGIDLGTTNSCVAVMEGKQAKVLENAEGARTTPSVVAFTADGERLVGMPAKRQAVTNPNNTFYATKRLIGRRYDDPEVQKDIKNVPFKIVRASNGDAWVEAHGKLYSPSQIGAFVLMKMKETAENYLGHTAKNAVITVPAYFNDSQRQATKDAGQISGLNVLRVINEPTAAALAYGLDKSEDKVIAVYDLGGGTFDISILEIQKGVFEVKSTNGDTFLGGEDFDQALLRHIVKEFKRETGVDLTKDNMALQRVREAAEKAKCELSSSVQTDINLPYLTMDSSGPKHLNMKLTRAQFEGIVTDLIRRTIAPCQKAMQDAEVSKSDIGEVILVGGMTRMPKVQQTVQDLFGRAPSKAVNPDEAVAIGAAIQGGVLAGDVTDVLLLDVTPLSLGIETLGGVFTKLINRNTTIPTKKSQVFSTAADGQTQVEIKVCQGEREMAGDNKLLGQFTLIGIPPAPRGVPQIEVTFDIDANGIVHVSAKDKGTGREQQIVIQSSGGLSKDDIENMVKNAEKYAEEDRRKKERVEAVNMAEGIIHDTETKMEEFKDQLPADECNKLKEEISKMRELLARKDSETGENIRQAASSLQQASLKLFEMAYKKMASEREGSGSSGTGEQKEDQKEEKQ

Molecule | effect on complement-mediated lysis (percent cell lysis) [1] | mortalin dependence of the effect on complement-mediated lysis ([1]; data not shown) | release of C9 by vesiculation ([2]; Western blot anti-C9) | release of mortalin by vesiculation ([2]; Western blot anti-mortalin) | p53 dependence of the complement sensitization effect [3] | effect on SLO-mediated lysis [4] | effect on A23187-mediated lysis [5] | ability of mortalin to bind C9 [6] | toxicity ([7]; cancer patients, continuous i.v. infusion 150 mg/m^2/five days (30 mg/m^2, day, for 5 days)) | toxicity ([7]; five-day infusion (30-50 mg/m^2/day) once every three weeks, chemo-resistant solid tumors) | associated toxicity [8, 10] | plasma concentrations [8, 10] | tolerability [8, 10] | toxicity ([8]; single bolus weekly infusion (42 mg/m^2) for 4 weeks every 6 weeks) | IC50 concentrations required in vitro [9]
CCn1c(=Cc2cccc[n+]2CC)sc(=C2Sc3ccccc3N2C)c1=O.[Cl-] [MKT-077] | significantly enhances killing | mortalin-dependent | inhibited | inhibited | presence or absence of p53 had no effect | no effect | no effect | significant decrease | renal toxicity | renal toxicity | hypomagnesemia (kidney toxicity) | 1.2-6.3 microgram/ml | well tolerated | manageable hypomagnesemia | 0.15-0.5 microgram/ml
Rhodamine123 | no effect | – | – | – | – | – | – | – | – | – | – | – | – | – | –
